Among the data in patent publication US11959102B2, “Augmentation of fibroblast regenerative activity” (Figene, LLC, priority 2017, dated 2024) are VEGF production values, retold here.

For this assay, the system named is Foreskin fibroblasts. In words: VEGF production by cultured fibroblasts, ELISA of culture media. The settings on record: media after 24 hours of culture. In kind it is cell-based. How it is done:
(§1) Foreskin fibroblasts purchased from ATCC where cultured in T-75 flasks using Fibroblast Basal Media from ATCC. When cells reached 75% confluence, exposure to: a) Normoxia; b) hypoxia (2% oxygen for 4 hours); c) carbon monoxide (250 ppm) for 4 hours; or d) hypoxia followed by carbon monoxide. Cells were re-plated on 96 well plates, flat bottomed, by trypsinization. Concentration of re-plated cells was 0, 10,000, 20,000 and 40,000 cells per well. Culture media was extracted after 24 hours of culture and analyzed for VEGF production using ELISA (R&D Systems). […] No VEGF production was observed from Normoxic Control fibroblasts.
as §1, with “simultaneously as” for “followed by”, “monoxide” for “monoxide.”, “replated” for “re-plated”

SMILES strings stand for the structures.

For the compound `[C-]#[O+]` [carbon monoxide], the VEGF production result by setting is: (hypoxia (2% oxygen for 4 hours) followed by carbon monoxide (250 ppm, 4 hours), FIG. 1) “synergistic increase”; (hypoxia (2% oxygen for 4 hours) simultaneously as carbon monoxide (250 ppm), FIG. 2) “synergistic increase”.
